We go through 14 compounds from US12383548B2, “Antibacterial quinolines” (priority 2019, dated 2025).

≈ marks a conversion by molar mass, not a printed value. Counter-ions that a name gives are not always drawn. Like-named read-outs stand apart in the source and are kept apart here.

The experiment deals with susceptible H37Rv M. tuberculosis, strain ATCC 25618. Put plainly: Mycobacterium tuberculosis susceptibility assay REMA (resazurin microtiter assay). As to conditions: for MIC: Mycobacterium tuberculosis, 144 h, read-out: REMA MIC. Type of experiment: cell-based. Further details: REMA MIC: unit not given here. (Resazurin is reduced to fluorescent resorufin, in cell work by metabolically active cells.)

Where [1] appears, read: Table 1, MTB growth, H37Rv, 6 days at 37° C., Middlebrook 7H9.
The mark [2] stands for this setting: Table 2, MTB growth, H37Rv, 6 days at 37° C., Middlebrook 7H9.

For `O=C(O)C1CCN(c2ccc3cc(-c4ccc(OC(F)(F)F)cc4)ccc3n2)CC1` [Compound 2, 1-(6-(4-(Trifluoromethoxy)phenyl)quinolin-2-yl)piperidine-4-carboxylic acid], the minimal inhibitory concentration (MIC) (in general, the least concentration at which growth counts as inhibited) runs as follows: under setting [1], less than 7.8 µM; under setting [2], less than 7.8 µM. On to `CCOC(=O)C1CCN(c2ccc3cc(-c4cccc(F)c4)ccc3n2)CC1` [Compound 8, ethyl 1-(6-(3-fluorophenyl)quinolin-2-yl)piperidine-4-carboxylate], for which the minimum inhibitory concentration (MIC) is, setting by setting: under setting [1], less than 7.8 µM; under setting [2], less than 7.8 µM. As to `CC(C)Oc1ccc(-c2ccc3nc(N4CCC(C(=O)O)CC4)ccc3c2)cc1F` [Compound 10, 1-(6-(3-fluoro-4-isopropoxyphenyl)quinolin-2-yl)piperidine-4-carboxylic acid], the MIC was less than 7.8 µM under setting [1] and less than 7.8 µM under setting [2]. On to `O=C(O)C1CCN(c2ccc3cc(-c4cccc(F)c4)ccc3n2)CC1` [Compound 11, 1-(6-(3-fluorophenyl)quinolin-2-yl)piperidine-4-carboxylic acid], for which the MIC under setting [1] was less than 7.8 µM and the MIC under setting [2] is less than 7.8 µM. Take `CCOC(=O)C1CCN(c2ccc3cc(-c4ccc(OC)nc4)ccc3n2)CC1` [Compound 14, ethyl 1-(6-(6-methoxypyridin-3-yl)quinolin-2-yl)piperidine-4-carboxylate]: the MIC runs as follows: under setting [1], less than 7.8 µM; under setting [2], less than 7.8 µM. With `O=C(O)C1CCN(c2ccc3cc(-c4ccncc4)ccc3n2)CC1` [Compound 18, 1-(6-(pyridin-4-yl)quinolin-2-yl)piperidine-4-carboxylic acid hydrochloride], the MIC is 7.8 to 15.6 µM. Regarding `CCOC(=O)C1CCN(c2ccc3cc(-c4ccc(OC)cc4Cl)ccc3n2)CC1` [Compound 19, ethyl 1-(6-(2-chloro-4-methoxyphenyl)quinolin-2-yl)piperidine-4-carboxylate], the MIC by setting is: under setting [1], less than 7.8 µM; under setting [2], less than 7.8 µM. For the compound `COc1ccc(-c2ccc3nc(N4CCC(C(=O)O)CC4)ccc3c2)cc1` [Compound 21, 1-(6-(4-methoxyphenyl)quinolin-2-yl)piperidine-4-carboxylic acid], the MIC is, setting by setting: under setting [1], less than 7.8 µM; under setting [2], less than 7.8 µM. For `COc1ccc(-c2ccc3nc(N4CCC(C(=O)O)CC4)ccc3c2)c(Cl)c1` [Compound 23, 1-(6-(2-chloro-4-methoxyphenyl)quinolin-2-yl)piperidine-4-carboxylic acid], the MIC under setting [1] is 7.8 to 15.6 µM (≈ 3.1 to 6.19 µg/mL). As for `CCOC(=O)C1CCN(c2ccc3cc(-c4ccc(OC)cc4C(F)(F)F)ccc3n2)CC1` [Compound 24, ethyl 1-(6-(4-methoxy-2-(trifluoromethyl)phenyl)quinolin-2-yl)piperidine-4-carboxylate hydrochloride], the MIC is less than 7.8 µM. In addition, the “REMA MIC” value under setting [2] is “++++ (<7.8)”. With `CCOC(=O)C1CCN(c2ccc3cc(-c4cccc(OC(F)(F)F)c4)ccc3n2)CC1` [Compound 25, ethyl 1-(6-(3-(trifluoromethoxy)phenyl)quinolin-2-yl)piperidine-4-carboxylate], the MIC was less than 7.8 µM under setting [1] and less than 7.8 µM under setting [2].

In the case of `O=C(O)C1CCN(c2ccc3cc(-c4cccc(OC(F)(F)F)c4)ccc3n2)CC1` [Compound 29, 1-(6-(3-(trifluoromethoxy)phenyl)quinolin-2-yl)piperidine-4-carboxylic acid], the MIC was less than 7.8 µM under setting [1] and less than 7.8 µM under setting [2]. Turning to `CCOC(=O)C1CCN(c2ccc3cc(-c4ccc(C)nc4)ccc3n2)CC1` [Compound 50, ethyl 1-(6-(6-methylpyridin-3-yl)quinolin-2-yl)piperidine-4-carboxylate], the MIC under setting [1] is less than 7.8 µM and the MIC under setting [2] was less than 7.8 µM. With `CCOC(=O)C1CCN(c2ccc3cc(-c4ccccn4)ccc3n2)CC1` [Compound 55, ethyl 1-(6-(pyridin-2-yl)quinolin-2-yl)piperidine-4-carboxylate], the MIC is, setting by setting: under setting [1], less than 7.8 µM; under setting [2], less than 7.8 µM.
